Measured values: US20190367516A1 (Bayer Pharma Aktiengesellschaft, priority 2015, published 2019)
Where two headings read alike, the source gives them in different places.

Molecular target: T1, human M2 receptor (Homo sapiens, UniProt P08172)
T1 sequence (P08172 1-466): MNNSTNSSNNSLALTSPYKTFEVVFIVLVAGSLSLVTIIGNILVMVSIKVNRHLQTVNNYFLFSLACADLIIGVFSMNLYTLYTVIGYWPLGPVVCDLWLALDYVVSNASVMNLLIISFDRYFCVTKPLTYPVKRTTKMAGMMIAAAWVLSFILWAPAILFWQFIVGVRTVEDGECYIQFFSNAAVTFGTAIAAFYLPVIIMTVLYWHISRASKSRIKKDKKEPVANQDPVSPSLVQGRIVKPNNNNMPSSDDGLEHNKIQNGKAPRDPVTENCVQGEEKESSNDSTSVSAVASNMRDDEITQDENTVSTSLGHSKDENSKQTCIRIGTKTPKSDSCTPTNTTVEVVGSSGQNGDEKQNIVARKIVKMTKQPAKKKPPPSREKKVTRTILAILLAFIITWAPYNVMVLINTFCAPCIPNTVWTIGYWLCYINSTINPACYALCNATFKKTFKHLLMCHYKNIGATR
Details: for Efficiency: boosting of the acetylcholine effect at EC20 acetylcholine concentration

[1] = Receptor activity EC50, M2-GIRK1/4 activation test, acetylcholine at EC20, allosteric potency, in some cases mean values from two or more determinations
[2] = Receptor activity EC50, allosteric potency at EC20 acetylcholine, M2-GIRK1/4 reporter cells, in some cases mean of two or more determinations
[3] = read-out: Efficiency, boosting of the acetylcholine effect at EC20 acetylcholine concentration, M2-GIRK1/4 reporter cells

EC50 [1] [µM]	EC50 [2] [µM]	Emax [3] [%]	SMILES	also measured
0.046			N#CN1CCCN(c2ccc3c(=O)c(C(=O)N[C@@H](C4CC4)C(F)(F)F)cn(-c4c(F)cc(F)cc4F)c3n2)C1=O [Example 380, 7-(3-Cyano-2-oxotetrahydropyrimidin-1(2H)-yl)-N-[(1S)-1-cyclopropyl-2,2,2-trifluoroethyl]-4-oxo-1-(2,4,6-trifluorophenyl)-1,4-dihydro-1,8-naphthyridine-3-carboxamide]	
	0.006	96	CC(NC(=O)c1cn(-c2c(F)cc(F)cc2F)c2nc(N3C[C@@H](O)CC3=O)ccc2c1=O)C(F)(F)C(F)(F)F (mixture of isomers) [Example 529, 7-[(4S)-4-Hydroxy-2-oxopyrrolidin-1-yl]-4-oxo-N-[3,3,4,4,4-pentafluorobutan-2-yl]-1-(2,4,6-trifluorophenyl)-1,4-dihydro-1,8-naphthyridine-3-carboxamide]	
	0.096		CC1CN(c2ccc3c(=O)c(C(=O)N[C@@H](C4CC4)C(F)(F)F)cn(-c4c(F)cc(F)cc4F)c3n2)C(=O)O1 (stereo in doubt) [Example 445, N-[(1 S)-1-Cyclopropyl-2,2,2-trifluoroethyl]-7-[(5S)-5-methyl-2-oxo-1,3-oxazolidin-3-yl]-4-oxo-1-(2,4,6-trifluorophenyl)-1,4-dihydro-1,8-naphthyridine-3-carboxamide]	Efficiency (M2-GIRK1/4 reporter cells): 97.5%
	0.024	100	C[C@H](NC(=O)c1cn(-c2c(F)cc(F)cc2F)c2nc(N3C[C@@H](O)CC3=O)ccc2c1=O)C1CC1 [Example 478, N-[(1 S)-1-Cyclopropylethyl]-7-[(4S)-4-hydroxy-2-oxopyrrolidin-1-yl]-4-oxo-1-(2,4,6-trifluorophenyl)-1,4-dihydro-1,8-naphthyridine-3-carboxamide]	
	1.45	66.5	O=C(N[C@@H](C1CC1)C(F)(F)F)c1cn(-c2c(F)cc(F)cc2F)c2nc(N3C[C@H](C(=O)O)OC3=O)ccc2c1=O [Example 670, (5R)-3-[6-{[(1S)-1-Cyclopropyl-2,2,2-trifluoroethyl]carbamoyl}-5-oxo-8-(2,4,6-trifluorophenyl)-5,8-dihydro-1,8-naphthyridin-2-yl]-2-oxo-1,3-oxazolidine-5-carboxylic acid]	
	0.029	90	CC(C)[C@H](C)NC(=O)c1cn(-c2c(F)cc(F)cc2F)c2nc(N3C[C@@H](O)[C@H](O)C3)ccc2c1=O [Example 472, 7-[(3R,4R)-3,4-Dihydroxypyrrolidin-1-yl]-N-[(2S)-3-methylbutan-2-yl]-4-oxo-1-(2,4,6-trifluorophenyl)-1,4-dihydro-1,8-naphthyridine-3-carboxamide]	

More lines, now with the values behind:

SMILES	EC50 [1] [µM]	EC50 [2] [µM]	Emax [3] [%]	also measured
O=C(NC1(C(F)(F)F)CC1)c1cn(-c2ccc(F)cc2F)c2nc(N3CC[C@H](F)C3)ccc2c1=O [Example 68, 1-(2,4-Difluorophenyl)-7-[(3S)-3-fluoropyrrolidin-1-yl]-4-oxo-N-[1-(trifluormethyl)cyclopropyl]-1,4-dihydro-1,8-naphthyridine-3-carboxamide]	0.058			
CC(NC(=O)c1cn(-c2c(F)cc(F)cc2F)c2nc(N3C[C@@H](C)NC3=O)ccc2c1=O)C(F)(F)C(F)(F)F (single isomer, unassigned) [Example 460]		0.005		Efficiency (M2-GIRK1/4 reporter cells): 98.0%
CC[C@@H](NC(=O)c1cn(-c2c(Cl)cc(F)cc2Cl)c2nc(N3C[C@@H](O)CC3=O)ccc2c1=O)C(F)(F)F [Example 388, 1-(2,6-Dichloro-4-fluorophenyl)-7-[(4S)-4-hydroxy-2-oxopyrrolidin-1-yl]-4-oxo-N-[(2R)-1,1,1-trifluorobutan-2-yl]-1,4-dihydro-1,8-naphthyridine-3-carboxamide]	0.052			Emax (read-out: Efficiency): 89%
CC(C)(CC(F)(F)F)NC(=O)c1cn(-c2c(F)cc(F)cc2F)c2nc(N3CC(O)C4(CC4)C3)ccc2c1=O (single isomer, unassigned) [Example 571, 7-[7-Hydroxy-5-azaspiro[2.4]hept-5-yl]-4-oxo-N-(4,4,4-trifluoro-2-methylbutan-2-yl)-1-(2,4,6-trifluorophenyl)-1,4-dihydro-1,8-naphthyridine-3-carboxamide]		0.012		
CC(C)(NC(=O)c1cn(-c2c(F)cc(F)cc2F)c2nc(N3CCCN(CCO)C3=O)ccc2c1=O)C(F)F [Example 382, N-(1,1-Difluoro-2-methylpropan-2-yl)-7-[3-(2-hydroxyethyl)-2-oxotetrahydropyrimidin-1(2H)-yl]-4-oxo-1-(2,4,6-trifluorophenyl)-1,4-dihydro-1,8-naphthyridine-3-carboxamide]	0.072			
O=C(NC12CC3CC(CC(C3)C1)C2)c1cn(-c2ccc(F)cc2F)c2nc(N3CCNC3=O)ccc2c1=O [Example 186, 1-(2,4-Difluorophenyl)-4-oxo-7-(2-oxoimidazolidin-1-yl)-N-(tricyclo[3.3.1.1^3,7]dec-1-yl)-1,4-dihydro-1,8-naphthyridine-3-carboxamide]	0.03			
CN(C)c1ccc2c(=O)c(C(=O)NC34CCC(CC3)CC4)cn(-c3ccc(F)cc3Cl)c2n1 [Example 152, N-(Bicyclo[2.2.2]oct-1-yl)-1-(2-chloro-4-fluorophenyl)-7-(dimethylamino)-4-oxo-1,4-dihydro-1,8-naphthyridine-3-carboxamide]	0.01			
CC[C@@H](NC(=O)c1cn(-c2ccc(F)cc2F)c2nc(N3C(=O)CCC3C)ccc2c1=O)C(F)(F)F (single isomer, unassigned) [Example 427]		0.019	91.5	
O=C(N[C@@H](C1CC1)C(F)(F)F)c1cn(-c2c(F)cc(F)cc2F)c2nc(N3CCNS3(=O)=O)ccc2c1=O [Example 373, N-[(1 S)-1-Cyclopropyl-2,2,2-trifluoroethyl]-7-(d1,1-dioxido-1,2,5-thiadiazolidin-2-yl)-4-oxo-1-(2,4,6-trifluorophenyl)-1,4-dihydro-1,8-naphthyridine-3-carboxamide]	0.089			
CCC(NC(=O)c1cn(-c2ccc(F)cc2F)c2nc(N3C[C@@H](O)CC3=O)ccc2c1=O)C(F)(F)C(F)(F)F (mixture of isomers) [Example 556, 1-(2,4-Difluorophenyl)-7-[(4S)-4-hydroxy-2-oxopyrrolidin-1-yl]-4-oxo-N-[1,1,1,2,2-pentafluoropentan-3-yl]-1,4-dihydro-1,8-naphthyridine-3-carboxamide]		0.01	100	
O=C(NC12CC(C1)C2)c1cn(-c2c(F)cc(F)cc2F)c2nc(N3CCNC3=O)ccc2c1=O [Example 653, N-(Bicyclo[1.1.1]pent-1-yl)-4-oxo-7-(2-oxoimidazolidin-1-yl)-1-(2,4,6-trifluorophenyl)-1,4-dihydro-1,8-naphthyridine-3-carboxamide]		0.089	86.5	
CN(CCF)c1ccc2c(=O)c(C(=O)NC34CC5CC(CC(C5)C3)C4)cn(-c3ccc(F)cc3F)c2n1 [Example 101, 1-(2,4-Difluorophenyl)-7-[(2-fluoroethyl)(methyl)amino]-4-oxo-N-(tricyclo[3.3.1.1^3,7]dec-1-yl)-1,4-dihydro-1,8-naphthyridine-3-carboxamide]	0.026			
CC(C)(NC(=O)c1cn(-c2ccc(F)cc2F)c2nc(N3CCNC3=O)ccc2c1=O)c1c(F)cccc1F [Example 184, 1-(2,4-Difluorophenyl)-N-[2-(2,6-difluorophenyl)propan-2-yl]-4-oxo-7-(2-oxoimidazolidin-1-yl)-1,4-dihydro-1,8-naphthyridine-3-carboxamide]	0.129			
